Data published in article PMC3481155, “AhR activation underlies the CYP1A autoinduction by A-998679 in rats” (Frontiers in Genetics, 2012).

Assays:
Cyp1a1 = assay: Immunohistochemistry of Cyp1a1 in rat liver; assay type: in vivo; conditions: 5 days of treatment; not detectable in control livers
Protocol: All animal experiments were conducted in accordance with the Guiding Principles in the Use of Animals in Toxicology (http://www.toxicology.org/ai/air/air6.asp) and were approved by Abbott's Institutional Animal Care and Use Committee (IACUC). Male Sprague-Dawley rats [Crl:CD®(SD)IGS BR], weighing ~250 g at study initiation were obtained from Charles River Laboratories, Inc. (Wilmington, MA). Rats were housed singly in ventilated, stainless steel, wire-bottom hanging cages and fed non-certified Rodent Chow (Harlan Labs, Madison, WI), and water ad libitum and acclimated for at least 5 days after arrival. Rats were randomly assigned to various treatment groups (3 rats/group) and were dosed once daily by oral gavage with vehicle (0.2% hydroxypropylmethylcellulose at a dose volume of 10 ml/kg) or with 30, 100, or 200 mg/kg of A-998679. All rats were fasted overnight after their last dose, weighed and sacrificed under isoflurane anesthesia. […] Serum clinical chemistry parameters were quantified using an Aeroset Clinical Chemistry Analyzer (Abbott Laboratories, Abbott Park, IL) and included alanine amino transferase (ALT), aspartate amino transferase (AST), gamma glutamyltransferase (GGT), and alkaline phosphatase (ALP) activities. […]

[1] = target: T1, aryl hydrocarbon receptor (AhR) (Homo sapiens, UniProt P35869); assay: AhR luciferase reporter assay in HepG2 cells; assay type: cell-based
T1 construct: endogenous in cells; host or cells: HepG2
T1 sequence (P35869 11-848): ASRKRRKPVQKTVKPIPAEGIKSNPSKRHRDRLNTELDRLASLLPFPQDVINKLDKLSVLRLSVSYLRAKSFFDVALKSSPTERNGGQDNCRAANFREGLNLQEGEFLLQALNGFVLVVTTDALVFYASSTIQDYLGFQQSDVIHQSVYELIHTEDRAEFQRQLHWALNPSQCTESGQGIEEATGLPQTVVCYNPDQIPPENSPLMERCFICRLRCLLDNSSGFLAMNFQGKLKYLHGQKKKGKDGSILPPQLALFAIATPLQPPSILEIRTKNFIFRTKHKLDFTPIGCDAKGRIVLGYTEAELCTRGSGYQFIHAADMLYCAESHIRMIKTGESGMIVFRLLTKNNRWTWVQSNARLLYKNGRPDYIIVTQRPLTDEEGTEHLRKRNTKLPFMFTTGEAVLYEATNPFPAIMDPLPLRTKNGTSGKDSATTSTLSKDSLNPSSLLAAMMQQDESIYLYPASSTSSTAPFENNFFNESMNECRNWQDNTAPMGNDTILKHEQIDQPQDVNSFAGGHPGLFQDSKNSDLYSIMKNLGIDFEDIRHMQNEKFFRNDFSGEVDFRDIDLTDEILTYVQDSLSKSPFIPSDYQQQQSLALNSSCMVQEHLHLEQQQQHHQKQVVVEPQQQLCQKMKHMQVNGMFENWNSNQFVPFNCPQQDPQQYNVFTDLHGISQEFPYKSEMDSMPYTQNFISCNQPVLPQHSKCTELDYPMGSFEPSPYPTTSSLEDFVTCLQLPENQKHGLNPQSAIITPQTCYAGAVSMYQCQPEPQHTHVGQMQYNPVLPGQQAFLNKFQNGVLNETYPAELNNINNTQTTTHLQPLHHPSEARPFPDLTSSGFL
Protocol: HepG2 cells were transiently transfected overnight with the construct (1200 bp portion of the human CYP1A1 promoter region containing 2 copies of the functional consensus sequence for the DRE in luc2P luciferase vector (SwitchGear Genomics cat# 114555, Menlo Park, CA) using lipofectin (Invitrogen Life Technologies) at 500 ng construct per million cells. Following transfection, the cells were replated in a 96-well format and dosed for 24 h with 0.1% (v/v) DMSO vehicle, 3-MC at 0.05, 0.1, 0.5, 1, 5, 10 μM, and A-998679 at 1.5625, 3.125, 6.25, 12.5, 25, and 50 μM. Luminescence signal was generated using the Dual-Luciferase Reporter Assay System (Promega, Madison, WI) and detected with a Tecan Genios Pro reader (Männedorf, Switzerland).

rat Cyp 2C12 = target: T2, rat Cyp 2C12 (Rattus norvegicus, UniProt P11510); assay: Recombinant rat Cyp phenotype profiling, 2C12; assay type: in vitro ADME; conditions: 60 min
T2 construct: purchased BD Gentest; host or cells: baculovirus infected insect cells
T2 sequence (P11510 whole entry): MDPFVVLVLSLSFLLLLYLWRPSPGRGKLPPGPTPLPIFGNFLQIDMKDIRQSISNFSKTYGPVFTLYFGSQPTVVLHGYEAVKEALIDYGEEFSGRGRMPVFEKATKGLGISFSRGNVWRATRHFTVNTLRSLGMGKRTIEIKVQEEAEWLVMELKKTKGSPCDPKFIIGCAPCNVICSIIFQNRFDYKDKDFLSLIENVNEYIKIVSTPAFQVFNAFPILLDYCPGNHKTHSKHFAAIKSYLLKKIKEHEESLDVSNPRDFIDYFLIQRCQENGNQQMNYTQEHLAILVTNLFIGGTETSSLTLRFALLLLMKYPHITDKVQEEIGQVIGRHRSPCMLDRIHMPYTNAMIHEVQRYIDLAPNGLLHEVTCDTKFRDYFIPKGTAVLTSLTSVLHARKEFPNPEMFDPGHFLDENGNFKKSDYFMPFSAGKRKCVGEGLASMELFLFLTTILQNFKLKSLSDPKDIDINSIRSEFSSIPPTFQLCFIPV
Protocol: Identification of the drug metabolizing enzymes (DMEs) of A-998679 was studied in cDNA expressed recombinant enzymes prepared from baculovirus infected insect cells over-expressing rat Cyp isoforms (BD Gentest, Woburn, MA) as listed in Table 2. Incubations were conducted in duplicate using Supersomes. The incubation mixture contained 100 pmol/ml of enzymes, except for Cyp1a1 (200 pmol/ml), 0.1 or 0.21 μM of [^3H]A-998679 in 100 mM phosphate buffer (pH 7.4). Reactions were initiated with the addition of NADPH at a final concentration of 1 mM and incubated at 37°C for 60 min. At the end of the incubation period, the incubations were terminated by the addition of acetonitrile/ethanol (50/50, v/v) solution. Insect control samples lacking expressed enzyme were used as negative control. The degree of metabolism of A-998679 was assessed by percent of parent remaining using the radio-HPLC method described below.
Radiolabeled components from the above assays were profiled following separation by HPLC with on line radioflow detector. The system consisted of an Agilent 1100 Series quaternary pump and autosampler connected to a Packard 500TR flow scintillation detector. The data were processed using the Radiomatic™ Flo-one® software v3.65. The scintillant (Perkin Elmer FLO-SCINT™ III) flow was maintained at 3 ml/min. […]

## N#Cc1cccc(-c2noc(-c3cccnc3)n2)c1 [A-998679, 3-(5-pyridin-3-yl-1,2,4-oxadiazol-3-yl) benzonitrile]
Cyp1a1
  Cyp1a1 immunostaining in rat liver: moderate levels in centrilobular regions
[1]; gene reporter assay
  lowest level activating the DRE: ~ 6 μM
[1]; luciferase reporter with human DRE construct, 24 h, read-out: EC50, activation of AhR signaling
  EC50: 16.2 µM
[1]; luciferase reporter, 24 h
  maximal increase over vehicle: 56 fold
Rat Cyp 2C12; recombinant rat Cyp 2C12, 0.10 μM
  % parent remaining: 100%
Rat Cyp 2C12; recombinant rat Cyp 2C12, 0.21 μM
  % parent remaining: 100%
